Values quoted from earlier work, collected in patent US8080517B2, “Cell-permeable peptide inhibitors of the JNK signal transduction pathway” (Xigen SA, priority 2005, dated 2011).

Key:
[1] = transient global ischemia; cited from earlier work
[2] = tested on: chick embryonic dorsal root ganglion, sympathetic, ciliary and motor neurons; conditions: cited from earlier work
[3] = tested on: primary embryonic cultures and differentiated PC12 cells; conditions: after trophic withdrawal; also in mice treated with 1-methyl-4-phenyl tetrahydropyridine; cited from earlier work

SMILES | delayed loss of hippocampal CA1 neurons [1] | long term-survival of cultured neurons [2] | neuronal survival [3]
N#CC(c1ccnc(NCCc2cccnc2)n1)c1nc2ccccc2s1 (stereo not drawn) [AS601245] | significant protection against the delayed loss of hippocampal CA1 neurons | – | –
CCSCc1ccc2c(c1)c1c3c(c4c5cc(CSCC)ccc5n5c4c1n2[C@H]1C[C@](O)(C(=O)OC)[C@]5(C)O1)CNC3=O [CEP-1347] | – | can promote long term-survival | promotes neuronal survival at dosages that inhibit activation of the c-Jun amino-terminal kinases (JNKs)
